Molecules are shown by their SMILES.

Assay type in all cases: cell-based, mouse
In experiment [1] the test system is α7 integrin (LacZ reporter in α7+/LacZ myotubes). The experiment is described as follows: Myotube α7 integrin FDG assay (Burkin assay in myotubes, 96-well). The settings on record: myotubes.
Experiment [2] concerns β-galactosidase in CMV-LacZ C2C12 myoblasts. Briefly: CMV-LacZ secondary screen in C2C12 myoblasts (β-Gal stabilizing assay). The settings on record: CMV-LacZ C2C12 myoblasts. Summed up: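 β-gal stabilization was measured in C2C12 myoblasts or myotubes stably transfected with a CMV-driven LacZ construct, using the FDG β-gal assay. Compounds were tested in dose-response at 0.5, 1, 5, 10, 20 and 40 μM, with two replicates per point.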

The test system of experiment [3] is α7 integrin (LacZ reporter in α7βgal+/− myoblasts). Briefly: Myoblast α7+/LacZ integrin FDG assay (Burkin assay in myoblasts, 96-well). Particulars: α7+/LacZ myoblasts, 96-well.
In experiment [4] the test system is β-galactosidase in CMV-LacZ C2C12 myotubes. The experiment is described as follows: CMV-LacZ secondary screen in C2C12 myotubes (β-Gal stabilizing assay). Particulars: C2C12 CMV-LacZ myotubes, fold relative to DMSO. In a few lines:
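Dose-response runs at 0.5–40 μM (0.5, 1, 5, 10, 20, 40 μM; N=2 per point) used a clonal C2C12 line carrying CMV-LacZ. Cells were assayed as myoblasts or as differentiated myotubes, and β-galactosidase levels were read with the FDG fluorogenic substrate.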

Take `c1ccc(-c2nn[nH]n2)nc1` [MLS000767397-01]: the “Burkin Assay in Myotubes, α7 integrin LacZ reporter signal relative to DMSO” value stood at 0.9294 in experiment [1] (0.5 uM); 0.9481 in experiment [1] (1 uM); 1.004 in experiment [1] (5 uM); 1.0608 in experiment [1] (10 uM); 0.9993 in experiment [1] (20 uM); 1.014 in experiment [1] (40 uM). Further, the “CMV-LACZ in Myoblasts (β-galactosidase activity relative to DMSO)” value in experiment [2] (0.5 uM) worked out at 1.2748; in experiment [2] (1 uM), 1.0646; in experiment [2] (5 uM), 0.9910; in experiment [2] (10 uM), 0.9687; in experiment [2] (20 uM), 0.8485; in experiment [2] (40 uM), 1.1433. Further, the “Burkin Assay in Myoblasts, signal relative to DMSO” value is reported as 0.8862 in experiment [3] (0.5 uM); 0.839 in experiment [3] (1 uM); 1.476 in experiment [3] (5 uM); 0.9334 in experiment [3] (10 uM); 1.613 in experiment [3] (20 uM); 0.9754 in experiment [3] (40 uM). The “CMV-LACZ in Myotubes, signal relative to DMSO” value is 0.8737 in experiment [4] (0.5 uM); 1.0368 in experiment [4] (1 uM); 0.9425 in experiment [4] (5 uM); 0.9519 in experiment [4] (10 uM); 1.0144 in experiment [4] (20 uM); 1.0067 in experiment [4] (40 uM).

As to `COc1ccc(N2CCN(C(=O)c3cc(C)on3)CC2)cc1` [MLS001124046-01], the fold induction at 0.5 µM in experiment [1] (Mus musculus, Myotube, 0.5 uM, read-out: Burkin Assay in Myotubes, α7 integrin LacZ reporter signal relative to DMSO) amounted to 1.15; in experiment [3] (Mus musculus, Myoblast, 48 h, 0.5 uM, read-out: Burkin Assay in Myoblasts, signal relative to DMSO) it was 1.06; in experiment [4] (Mus musculus, C2C12, read-out: CMV-LACZ in Myotubes, signal relative to DMSO, 0.5 uM), 1.02. The fold induction at 1 µM was 1.1 in experiment [1] (Mus musculus, Myotube, 1 uM, read-out: Burkin Assay in Myotubes, α7 integrin LacZ reporter signal relative to DMSO); 1.16 in experiment [3] (Mus musculus, Myoblast, 48 h, 1 uM, read-out: Burkin Assay in Myoblasts, signal relative to DMSO); 1.02 in experiment [4] (Mus musculus, C2C12, read-out: CMV-LACZ in Myotubes, signal relative to DMSO, 1 uM). Moreover, the fold induction at 5 µM in experiment [1] (Mus musculus, Myotube, 5 uM, read-out: Burkin Assay in Myotubes, α7 integrin LacZ reporter signal relative to DMSO) is 1.42; in experiment [3] (Mus musculus, Myoblast, 48 h, 5 uM, read-out: Burkin Assay in Myoblasts, signal relative to DMSO) it was 1.08; in experiment [4] (Mus musculus, C2C12, read-out: CMV-LACZ in Myotubes, signal relative to DMSO, 5 uM) it was 0.84. For the same molecule, the fold induction at 10 µM was found to be 1.02 in experiment [1] (Mus musculus, Myotube, 10 uM, read-out: Burkin Assay in Myotubes, α7 integrin LacZ reporter signal relative to DMSO); 1.01 in experiment [3] (Mus musculus, Myoblast, 48 h, 10 uM, read-out: Burkin Assay in Myoblasts, signal relative to DMSO); 1.02 in experiment [4] (Mus musculus, C2C12, read-out: CMV-LACZ in Myotubes, signal relative to DMSO, 10 uM). For the same molecule, the fold induction at 20 µM in experiment [1] (Mus musculus, Myotube, 20 uM, read-out: Burkin Assay in Myotubes, α7 integrin LacZ reporter signal relative to DMSO) was 0.893; in experiment [3] (Mus musculus, Myoblast, 48 h, 20 uM, read-out: Burkin Assay in Myoblasts, signal relative to DMSO), 1.1; in experiment [4] (Mus musculus, C2C12, read-out: CMV-LACZ in Myotubes, signal relative to DMSO, 20 uM) it was 1.09. In addition, the fold induction at 40 µM was determined as 0.92 in experiment [1] (Mus musculus, Myotube, 40 uM, read-out: Burkin Assay in Myotubes, α7 integrin LacZ reporter signal relative to DMSO); 1.07 in experiment [3] (Mus musculus, Myoblast, 48 h, 40 uM, read-out: Burkin Assay in Myoblasts, signal relative to DMSO); 0.981 in experiment [4] (Mus musculus, C2C12, read-out: CMV-LACZ in Myotubes, signal relative to DMSO, 40 uM). Besides, the “CMV-LACZ in Myoblasts (β-galactosidase activity relative to DMSO)” value amounted to 0.8409 in experiment [2] (0.5 uM); 1.2650 in experiment [2] (1 uM); 0.9307 in experiment [2] (5 uM); 0.8501 in experiment [2] (10 uM); 0.9881 in experiment [2] (20 uM); 1.0807 in experiment [2] (40 uM).

In the case of `COc1ccc(NC(=O)C2(N(C(=O)Cn3nnnc3N)c3ccc(OC)cc3)CCCCC2)cc1` [MLS001030268-01], the “Burkin Assay in Myotubes, α7 integrin LacZ reporter signal relative to DMSO” value in experiment [1] (0.5 uM) amounted to 1.076; in experiment [1] (1 uM), 1.161; in experiment [1] (5 uM) it was 1.213; in experiment [1] (10 uM), 0.9249; in experiment [1] (20 uM) it was 0.6277; in experiment [1] (40 uM), 0.7606. For the same molecule, the “CMV-LACZ in Myoblasts (β-galactosidase activity relative to DMSO)” value in experiment [2] (0.5 uM) came to 1.0809; in experiment [2] (1 uM), 1.1550; in experiment [2] (5 uM), 1.1347; in experiment [2] (10 uM), 1.1787; in experiment [2] (20 uM) it was 0.7467; in experiment [2] (40 uM) it was 0.5556. For the same molecule, the “Burkin Assay in Myoblasts, signal relative to DMSO” value worked out at 1.239 in experiment [3] (0.5 uM); 1.143 in experiment [3] (1 uM); 1.49 in experiment [3] (5 uM); 0.8716 in experiment [3] (10 uM); 0.726 in experiment [3] (20 uM); 0.6069 in experiment [3] (40 uM). In addition, the “CMV-LACZ in Myotubes, signal relative to DMSO” value in experiment [4] (0.5 uM) was determined as 0.8830; in experiment [4] (1 uM) it was 1.1711; in experiment [4] (5 uM) it was 1.1318; in experiment [4] (10 uM), 1.1128; in experiment [4] (20 uM), 0.9365; in experiment [4] (40 uM), 0.9506.

In the case of `CCCN(C(=O)c1ccc(S(=O)(=O)N2CCCC2)cc1)C1CCS(=O)(=O)C1` (stereo not drawn) [MLS002161853-01], the “Burkin Assay in Myotubes, α7 integrin LacZ reporter signal relative to DMSO” value in experiment [1] (0.5 uM) was determined as 0.8761; in experiment [1] (1 uM), 0.8092; in experiment [1] (5 uM), 0.9889; in experiment [1] (10 uM) it was 1.16; in experiment [1] (20 uM) it was 0.919; in experiment [1] (40 uM), 0.9353. The “CMV-LACZ in Myoblasts (β-galactosidase activity relative to DMSO)” value was 1.0131 in experiment [2] (0.5 uM); 0.8734 in experiment [2] (1 uM); 0.8819 in experiment [2] (5 uM); 0.9436 in experiment [2] (10 uM); 1.0922 in experiment [2] (20 uM); 0.9348 in experiment [2] (40 uM). In addition, the “Burkin Assay in Myoblasts, signal relative to DMSO” value in experiment [3] (0.5 uM) is 0.8569; in experiment [3] (1 uM), 0.8278; in experiment [3] (5 uM) it was 0.9386; in experiment [3] (10 uM) it was 1.1978; in experiment [3] (20 uM) it was 1.073; in experiment [3] (40 uM), 0.9354. In addition, the “CMV-LACZ in Myotubes, signal relative to DMSO” value turned out to be 1.0524 in experiment [4] (0.5 uM); 0.8352 in experiment [4] (1 uM); 1.1122 in experiment [4] (5 uM); 0.9103 in experiment [4] (10 uM); 1.2341 in experiment [4] (20 uM); 1.0647 in experiment [4] (40 uM).
